From paper PMC8773213, “In Vitro Anticancer Activity and Mechanism of Action of an Aziridinyl Galactopyranoside” (Biomedicines, 2021)
Where two headings read alike, the source gives them in different places.

Columns and labels:
[1] = tested on: AA8 cells (NER proficient); test: MTT cell viability assay, AA8 cells; type: cell-based, Chinese hamster; settings: then 48 h in drug-free medium, read-out: IC50 (mean ± SEM), AA8 cells
Experimental: (§1) Exponentially growing cells were seeded in 96-well plates and allowed to attach and grow for 24 h. The cells were then treated with increasing concentrations of the tested drugs. At the end of the treatment period, cell viability was measured with the MTT assay or the resazurin assay, two widely used techniques.
(§2) In the case of the MTT assay, this technique detects viable cells using the ability of these cells to reduce the yellow tetrazolium MTT to an insoluble colored formazan product. Subsequently, this product was solubilized and analyzed by spectrophotometry. Dead cells cannot reduce the MTT into the colored formazan product. Briefly, 24 h after plating, cells were treated with the tested compounds for 48 h; except in experiments with DNA repair-proficient and -deficient cell lines, in which cells were only exposed for 24 h to drugs and allowed to grow for an additional 48 h in drug-free medium to allow them to repair possible DNA damage induced by the tested drugs. […] Finally, plates were incubated overnight at 37 °C and optical densities were measured at 540 nm using an absorbance spectrophotometer microplate reader.
(§3) In both assays, cell viability was expressed as percentage compared to untreated cells. Results were expressed as the means ± standard error of the mean (SEM). […]

[2] = tested on: UV4 cells (mutated in ERCC1, NER deficient); test: MTT cell viability assay, UV4 cells; type: cell-based, Chinese hamster
Experimental: as §1, §2, §3

UV4 and AA8 cells = test: Clonogenic survival assay; type: cell-based, Chinese hamster; settings: 10 µM, 24 h, then colonies in drug-free medium
Experimental: Cell survival after treatment was determined by clonogenic assay. AA8 and UV4 cells were seeded in 6 cm Petri dishes 4 h prior to treatment for 24 h. After that, drugs were removed and cells were allowed to form colonies for eight days. The colonies were then stained with 0.4% methylene blue in methanol for 15 min. Surviving colonies made up of more than 50 cells per colony were counted. Results were represented as percentage of survival referred to untreated cells.

A549 cells [3] = type: cell-based; settings: A549, 48 h, antioxidant added 1 h before; MTT
Experimental: as §1
In the case of the MTT assay, this technique detects viable cells using the ability of these cells to reduce the yellow tetrazolium MTT to an insoluble colored formazan product. Subsequently, this product was solubilized and analyzed by spectrophotometry. Dead cells cannot reduce the MTT into the colored formazan product. Briefly, 24 h after plating, cells were treated with the tested compounds for 48 h; except in experiments with DNA repair-proficient and -deficient cell lines, in which cells were only exposed for 24 h to drugs and allowed to grow for an additional 48 h in drug-free medium to allow them to repair possible DNA damage induced by the tested drugs. After the treatment period, the medium was removed, the cells were washed once with PBS and 125 μL MTT (1 mg/mL in medium) was added to each well. Plates were incubated for 2–4 h and then 80 μL 20% SDS in 0.02 M HCl was added to each well. Finally, plates were incubated overnight at 37 °C and optical densities were measured at 540 nm using an absorbance spectrophotometer microplate reader.
(§4) In both assays, cell viability was expressed as percentage compared to untreated cells. Results were expressed as the means ± standard error of the mean (SEM). All data are from at least three independent experiments.

A549 cells [4] = test: Glycolysis inhibition (glucose consumed, lactate produced); type: cell-based, human; settings: A549, 8 h
Experimental: Inhibition of glycolysis was determined by measuring glucose consumed (initial product of glycolysis) and lactate produced (final product of glycolysis) in untreated and treated cells. Cells were seeded in 6-well plates at a density of 10^6 cells/well and were allowed to attach for a few hours before treatment with the tested compounds for 8 h. After treatment, medium was recollected and glucose and lactate concentrations were determined using the Accutrend® Plus analyzer together with Accutrend glucose strips and BM-Lactate strips (Roche Diagnostics, Barcelona, Spain). After calibrating the instrument with glucose and lactate calibration strips, test strips were used to determine glucose and lactate levels through colorimetric oxidase mediator reactions according to the manufacturer’s instructions. The results are expressed as percentage of glucose consumption and percentage of lactate production in relation to untreated cells. Data were averaged from two independent experiments and shown as mean ± SEM.

MRC-5 lung normal cells = test: MTT cytotoxicity of combinations, MRC-5; type: cell-based; settings: 48 h
Experimental: as §1, §2, §3

[5] = tested on: MRC-5 (Human lung non-malignant cells); test: Resazurin cell viability assay, MRC-5; type: cell-based; settings: MRC5, 72 h, read-out: IC50 (Mean ± SEM, µM), MRC-5
Experimental: as §1
(§5) The resazurin assay is a redox-based colorimetric/fluorometric technique based on the ability of viable cells to reduce the blue compound resazurin into the pink, fluorescent and soluble product resorufin. The amount of resorufin produced is generally proportional to the number of living cells. In this assay, 24 h after seeding, cells were exposed to the tested drugs for 72 h. Then 100 μL resazurin in medium was added to each well (final concentration of 10 μg/mL) and, one hour later the fluorescence intensity was measured at 530/590 nm (excitation/emission) using a fluorescence microplate reader.
as §4

[6] = tested on: HepG2 (Human hepatocellular carcinoma cells); test: Resazurin cell viability assay, HepG2; type: cell-based; settings: 72 h, read-out: IC50 (Mean ± SEM, µM), HepG2
Experimental: as §1, §5, §4

[7] = tested on: PC3 (Human prostate cancer cells); test: Resazurin cell viability assay, PC3; type: cell-based; settings: 72 h, read-out: IC50 (Mean ± SEM, µM), PC3
Experimental: as §1, §5, §4

[8] = tested on: BJ-hTERT (hTERT-immortalized skin non-malignant BJ cells); test: Resazurin cell viability assay, BJ-hTERT; type: cell-based; settings: Homo sapiens, 72 h, read-out: IC50 (Mean ± SEM, µM), BJ-hTERT
Experimental: as §1, §5, §4

[9] = tested on: BJ-SV40T (SV40T-transformed BJ-hTERT cells); test: Resazurin cell viability assay, BJ-SV40T; type: cell-based; settings: Homo sapiens, 72 h, read-out: IC50 (Mean ± SEM, µM), BJ-SV40T
Experimental: as §1, §5, §4

[10] = tested on: BJ-RASV12 (HRASV12-transformed BJ-SV40T cells); test: Resazurin cell viability assay, BJ-RASV12; type: cell-based, human; settings: 72 h
Experimental: as §1, §5, §4

[11] = tested on: cancer cell lines versus MRC-5 and VH10 normal cell lines; test: Resazurin assay, panel of cancer cells versus normal cells; type: cell-based, human
Experimental: as §1, §5, §4
Next, we evaluated the cytotoxic activity of AzGalp in cancer cell lines derived from solid tumors (HeLa, PC3, U2OS, HepG2 and SW480) and from hematological malignancies (NB4 and HL-60). To study the selectivity against cancer cells, MRC-5 and VH10 cells were used as normal cell lines; 5-FU was used as a positive control. All cells were treated with AzGalp or 5-FU for 72 h and cell viability was evaluated with the resazurin assay. This assay was used to determine cell viability instead of the MTT assay because the HL60 and NB4 cell lines grow in suspension. […] Leukemia cell lines were approximately 15 times more sensitive than normal cells to the cytotoxicity of our aziridine.

Cc1ccc(S(=O)(=O)N2CC2(C)CO[C@@H]2O[C@@H]3CO[C@H](c4ccccc4)O[C@@H]3[C@H](OCc3ccccc3)[C@H]2OCc2ccccc2)cc1 (stereo partly drawn) [AzGalp, 2-methyl-2,3-[N-(4-methylbenzenesulfonyl)imino]propyl 2,3-di-O-benzyl-4,6-O-(S)-benzylidene-β-D-galactopyranoside]
IC50 ([1]; 24 h exposure): 319 ± 77.2 µM | IC50 ([1]; Cricetulus griseus, CHO-AA8, 24 h exposure): 397 ± 142 µM | IC50 ([2]; Cricetulus griseus, UV4, 24 h exposure, then 48 h in drug-free medium, read-out: IC50 (means ± SEM), UV4 cells): 58.6 ± 9.3 µM | Sensitivity of NER-deficient cells relative to NER-proficient cells ([2]; UV4 and UV5 versus AA8): approximately six times more sensitive | Cell survival, UV4 versus AA8 (clonogenic assay) (UV4 and AA8 cells): UV4 cells were more sensitive | Effect of MnTMPyP on cytotoxicity (A549 cells [3]): Neither MnTMPyP nor catalase prevented the cytotoxicity | Effect of NAC on cytotoxicity (A549 cells [3]): slightly prevented cytotoxic activity, it was not statistically significant | Effect of catalase on cytotoxicity (A549 cells [3]): Neither MnTMPyP nor catalase prevented the cytotoxicity | Glycolytic activity (glucose consumption and lactate production) (A549 cells [4]): did not affect the glycolytic activity | Cytotoxicity of combination with 5-FU, normal cells (MRC-5 lung normal cells; 100 μM AzGalp + 10 μM 5-FU): did not increase cytotoxicity against normal cells | Cytotoxicity of combination with oxaliplatin, normal cells (MRC-5 lung normal cells; 100 μM AzGalp + 10 μM oxaliplatin): did not increase cytotoxicity against normal cells | IC50 [5]: 341 ± 85 µM | IC50 [6]: 122 ± 12.4 µM | IC50 [7]: 401 ± 14.8 µM | IC50 [8]: 209 ± 24.2 µM | IC50 [9]: 143 ± 8.1 µM | Sensitivity of BJ-RASV12 malignant cells relative to BJ-hTERT non-malignant cells ([10]; resazurin): three times more sensitive | IC50 ([10]; Homo sapiens, resazurin assay, read-out: IC50 (Mean ± SEM, µM), BJ-RASV12): 76.3 ± 17.8 µM | Viability of leukemia cells ([11]; HL60 and NB4, concentrations between 10 and 100 µM, 72 h): 5% | Viability of normal cells ([11]; MRC-5 and VH10, concentrations between 10 and 100 µM, 72 h): did not alter the viability of normal cells | Sensitivity of leukemia cell lines relative to normal cells ([11]; NB4 and HL-60 versus MRC-5 and VH10, 72 h): approximately 15 times | Cytotoxicity against HepG2 and U2OS relative to normal cell lines ([11]; versus MRC-5 and VH10, 72 h): approximately 2.5 times
